Calls of active or inactive are those of the source. The calls are words filed in the database; no cut-off is given here.
Experiments:
[1] = system: BaF3; experiment: Antiproliferative activity against mouse BaF3 cells stably expressing KIF5B-RET incubated for 72 hrs by CCK8 assay; format: functional, cell-based; details: BaF3, 72 h
[2] = system: BaF3; experiment: Antiproliferative activity against mouse BaF3 cells stably expressing KIF5B-RET G810C mutant incubated for 72 hrs by CCK8 assay; format: functional, cell-based; details: BaF3, 72 h
[3] = system: BaF3; experiment: Antiproliferative activity against mouse BaF3 cells stably expressing CCDC6-RET incubated for 72 hrs by CCK8 assay; format: functional, cell-based; details: BaF3, 72 h
[4] = system: BaF3; experiment: Antiproliferative activity against mouse BaF3 cells stably expressing CCDC6-RET V804M mutant incubated for 72 hrs by CCK8 assay; format: functional, cell-based; details: BaF3, 72 h
[5] = system: BaF3; experiment: Antiproliferative activity against mouse BaF3 cells stably expressing CCDC6-RET G810C mutant incubated for 72 hrs by CCK8 assay; format: functional, cell-based; details: BaF3, 72 h
[6] = system: HeLa; experiment: Cytotoxicity against human HeLa cells; format: functional, cell-based
[7] = system: A549; experiment: Cytotoxicity against human A549 cells; format: functional, cell-based
[8] = system: MCF7; experiment: Cytotoxicity against human MCF7 cells; format: functional, cell-based
[9] = system: HL-60; experiment: Cytotoxicity against human HL-60 cells; format: functional, cell-based
[10] = system: BaF3; experiment: PROTAC activity at CRBN/KIF5B-RET (unknown origin) expressed in mouse BaF3 cells assessed as induction of RET degradation at 20 nM incubated for 8 to 24 hrs by immunoblot analysis; format: cell-based; details: time 8-24 hrs
[11] = system: BaF3; experiment: PROTAC activity at CRBN/KIF5B-RET (unknown origin) expressed in mouse BaF3 cells assessed as induction of RET degradation at 10 nM incubated for 24 hrs by immunoblot analysis; format: cell-based
[12] = system: BaF3; experiment: PROTAC activity at CRBN/KIF5B-RET (unknown origin) expressed in mouse BaF3 cells assessed as induction of RET degradation at 10 nM incubated for 24 hrs in presence of MLN4924 by immunoblot analysis; format: cell-based
[13] = Induction of apoptosis in mouse BaF3 cells stably expressing KIF5B-RET G810C mutant assessed as late apoptotic cells at 10 nM incubated for 48 hrs by Annexin V-FITC/PI staining based flow cytometry (reference value: 5.99 %); format: functional
[14] = Induction of apoptosis in mouse BaF3 cells stably expressing KIF5B-RET G810C mutant assessed as viable cells at 20 nM incubated for 48 hrs by Annexin V-FITC/PI staining based flow cytometry (reference value: 92.21 %); format: functional; details: read-out: Activity
[15] = Induction of apoptosis in mouse BaF3 cells stably expressing KIF5B-RET G810C mutant assessed as viable cells at 40 nM incubated for 48 hrs by Annexin V-FITC/PI staining based flow cytometry (reference value: 92.21 %); format: functional; details: read-out: Activity
[16] = Induction of apoptosis in mouse BaF3 cells stably expressing KIF5B-RET G810C mutant assessed as early apoptotic cells at 40 nM incubated for 48 hrs by Annexin V-FITC/PI staining based flow cytometry (reference value: 0.86 %); format: functional
[17] = Induction of apoptosis in mouse BaF3 cells stably expressing KIF5B-RET G810C mutant assessed as necrotic cells at 40 nM incubated for 48 hrs by Annexin V-FITC/PI staining based flow cytometry (reference value: 0.94 %); format: functional
[18] = Induction of apoptosis in mouse BaF3 cells stably expressing KIF5B-RET G810C mutant assessed as apoptotic cells at 20 nM incubated for 48 hrs by Annexin V-FITC/PI staining based flow cytometry (reference value: 6.7 %); format: functional
[19] = Half life in Sprague-Dawley rat at 1 mg/kg, iv measured for 24 hrs by LC-MS/MS analysis; format: ADME, organism-based; details: in vivo
[20] = Tmax in Sprague-Dawley rat at 1 mg/kg, iv measured for 24 hrs by LC-MS/MS analysis; format: ADME, organism-based; details: in vivo
[21] = Half life in Sprague-Dawley rat at 10 mg/kg, po measured for 24 hrs by LC-MS/MS analysis; format: ADME, organism-based; details: in vivo
[22] = Tmax in Sprague-Dawley rat at 10 mg/kg, po measured for 24 hrs by LC-MS/MS analysis; format: ADME, organism-based; details: in vivo
[23] = Cmax in Sprague-Dawley rat at 10 mg/kg, po measured for 24 hrs by LC-MS/MS analysis; format: ADME, organism-based; details: in vivo
[24] = system: BaF3; experiment: Antitumor activity against mouse BaF3 cells stably expressing KIF5B-RET G810C mutant implanted in BALB/c nu/nu mouse at 10 mg/kg, po qd treated for 10 days relative to control; format: functional; details: BaF3, 240 h, time 10 day, read-out: TGI
[25] = Oral bioavailability in Sprague-Dawley rat at 10 mg/kg measured for 24 hrs by LC-MS/MS analysis; format: ADME, organism-based; details: in vivo
[26] = Toxicity in BALB/c nu/nu mouse implanted with mouse BaF3 cells stably expressing KIF5B-RET G810C mutant assessed as body weight loss at 10 mg/kg, po bid treated for 10 days; format: organism-based; details: in vivo, 240 h, time 10 day
[27] = system: Kinesin-1 heavy chain/ Tyrosine-protein kinase receptor RET (Homo sapiens), P07949+P33176 [G810C]; experiment: In vivo PROTAC activity at CRBN/KIF5B-RET G810C mutant (unknown origin) expressed in mouse BaF3 cells implanted in BALB/c nu/nu mouse assessed as induction of RET G810C mutant degradation at 10 mg/kg, po qd treated for 10 days by Western blot analysis; format: functional, organism-based; details: time 10.0 day

In the case of `COc1ccc(CN2C3CC2CN(c2ccc(-c4cc(N5CCC(N6CCN(CCCC#Cc7cccc8c7CN(C7CCC(=O)NC7=O)C8=O)CC6)CC5)cn5ncc(C#N)c45)cn2)C3)cn1` (configuration not stated), the IC50 [1] is reported as 2.6 nM, the IC50 [2] is reported as 5.3 nM and the IC50 [3] is reported as 2.4 nM. For the same compound, the IC50 [4] was 4.5 nM, the IC50 [5] was 6.5 nM and the IC50 [6] was over 5000 nM. The IC50 [7] was over 5000 nM, the IC50 [8] was over 5000 nM and the IC50 [9] was over 5000 nM. The Activity [10] was “Active”, the Activity [11] was “Active” and the Activity [12] was “inactive”. It also gave an Activity [13] of 15.87%, a viability at 0.02 µM [14] of 43.4% and a viability at 0.04 µM [15] of 27.9%. It also gave an Activity [16] of 56.22%, an Activity [17] of 0.54% and an Activity [18] of 55.4%. The half-life [19] was 6.98 h, the Tmax [20] was 4.98 min and the half-life [21] was 8.21 h. The Tmax [22] was 2 h, the Cmax [23] was 161 ng/mL and the inhibition in vivo at 10 mg/kg [24] was 62.3%. The bioavailability [25] was 40.3%, the Activity [26] was “Non-toxic” and the Activity [27] was “Active”.
